In publication PMC4699463 (2015):

Legend:
Experiment in all cases: F-neo fluorescence displacement
[1] = tested on: hsa-miR 142 (RNA, miRNA) CAUAAAGUAGAAAGCACUACUUU/AGUAGUGCUUUCUACUUUAUGUU; conditions: 25 mM KCl; 10 mM sodium phosphate, 0.05 mM EDTA, pH 6.5; tracer 100 nM F-neo, 100 nM miRNA; per site
[2] = tested on: pre-hsa-miR 504 (RNA, miRNA) GCUGCUGUUGGGAGACCCUGGUCUGCACUCUAUCUGUAUUCUUACUGAAGGGAGUGCAGGGCAGGGUUUCCCAUACAGAGGGC; conditions: 25 mM KCl; 10 mM sodium phosphate, 0.05 mM EDTA, pH 6.5; tracer 100 nM F-neo, 16.7 nM pre-miRNA; per site
[3] = tested on: hsa-miR 504 (RNA, miRNA) AGACCCUGGUCUGCACUCUAUCUU/GAUAGAGUGCAGACCAGGGUCUUU; conditions: 25 mM KCl; 10 mM sodium phosphate, 0.05 mM EDTA, pH 6.5; tracer 100 nM F-neo, 50 nM miRNA; per site
[4] = tested on: hsa-miR 335 (RNA, miRNA) UCAAGAGCAAUAACGAAAAAUGUUU/ACAUUUUUCGUUAUUGCUCUUGAUU; conditions: 25 mM KCl; 10 mM sodium phosphate, 0.05 mM EDTA, pH 6.5; tracer 100 nM F-neo, 100 nM miRNA; per site

- IC50 [1]: 0.0957 ± 0.0056 µM
- IC50 [2]: 0.0562 ± 0.0023 µM
- IC50 [3]: 0.0703 ± 0.0016 µM
- IC50 [4]: 0.1174 ± 0.0081 µM
Structure (SMILES): NC[C@@H]1O[C@H](O[C@H]2[C@@H](O)[C@H](O[C@@H]3[C@@H](O)[C@H](N)C[C@H](N)[C@H]3O[C@H]3O[C@H](CN)[C@@H](O)[C@H](O)[C@H]3N)O[C@@H]2CO)[C@H](N)[C@@H](O)[C@@H]1O
